Experimental data taken from patent publication EP2072511A1 (INSERM (Institut National de la Santé et de la Recherche …, priority 2007, dated 2009).

Experiments:
[1] = target: T1, PrP^Sc from a prion-infected cellular lysate (Mus musculus, UniProt P04925)
[2] = target: PrP^Sc from infected N2a58/22L cells (Mus musculus, UniProt P04925); assay type: cell-based, murine
[3] = target: T1, PrP^Sc from a prion-infected cellular lysate; assay: biochemical; conditions: 1 h, read-out: amplification of the oligomerization in cellular extract

Chain of PrP^Sc from infected N2a58/22L cells (P04925 23-230 limits assumed): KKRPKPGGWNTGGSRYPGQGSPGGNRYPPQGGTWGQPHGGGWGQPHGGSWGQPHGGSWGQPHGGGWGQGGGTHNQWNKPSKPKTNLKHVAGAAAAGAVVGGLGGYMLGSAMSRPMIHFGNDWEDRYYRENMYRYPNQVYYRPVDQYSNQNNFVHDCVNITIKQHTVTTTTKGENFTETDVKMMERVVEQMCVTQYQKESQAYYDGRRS
T1 sequence (P04925 23-230 limits assumed): as above

Row | Structure (SMILES) | concentration at which the compound is efficient (oligomerization on cellular extract) [1] [µM] | amount of oligomeric forms observed, compared with compound T 1 or T2 under the same conditions [2] | dosis for which the saturation of the signal (effect of oligomerisation) is achieved [2] [µM] | fold induction at 1 µM [3]
1 | CSc1nccc(-c2ccc(Br)s2)n1 [T1] | ≥ 312 |  |  | 
2 | Nc1nc(N)nc(-c2ccc(-c3ccc(-c4ccc(-c5ccc(-c6nc(N)nc(N)n6)s5)s4)s3)s2)n1 [compound I, 6,6'-(2,2':5',2":5",2'''-quaterthiophene-5,5'''-diyl)bis(1,3,5-triazine-2,4-diamine)] |  | much greater | 2.5 | ≥ 100
